# Source: US20070128217A1 (priority 2003, published 2007)
# Experiments:
# [1] = system: control sera (pooled serum of ten healthy LUMC hospital workers; commercial negative donor pooled serum from the Dutch bloodbank); format: binding, human; set-up: Binding of Control serum LUMC to linear peptides / Binding of Control serum Blood-bank to linear peptides / Binding of Control serum LUMC to looped peptides / Binding of Control Serum Blood-Bank to Looped peptides / Binding of Control serum LUMC to linear peptides of the protein M of SARS-CoV Urbani / Binding of Control serum Blood-bank to linear peptides of the protein M of SARS-CoV Urbani / Binding of Control serum LUMC to looped peptides of the protein M of SARS-CoV Urbani / Binding of Control Serum Blood-Bank to Looped peptides of the protein M of SARS-CoV Urbani: unit not given here
# [2] = system: rabbit serum obtained by immunizing a rabbit with the SARS-CoV strain Frankfurt 1; format: binding; set-up: Binding of a rabbit serum to linear peptides / Binding of a rabbit serum to looped peptides / Rabbit serum linear peptides / Rabbit serum looped peptides / Binding of a rabbit serum to linear peptides of protein N of SARS-CoV Urbani (Rabbit serum linear peptides) / Binding of a rabbit serum to looped/cyclic peptides of protein N of SARS-CoV Urbani (Rabbit serum looped peptides): unit not given here
# [3] = system: antibodies in sera from SARS patients (sera 1a, 1b, 2, 6, 37, 62, London, SARS-yellow, SARS-green); format: binding, human; set-up: Binding of serum 6 to linear peptides of protein X1 of SARS-CoV Urbani / Binding of serum 37 to linear peptides of protein X1 of SARS-CoV Urbani / Binding of serum 6 to looped/cyclic peptide (PEPSCAN-ELISA) / Binding of serum 37 to looped/cyclic peptide (PEPSCAN-ELISA) / Binding of serum 37 to looped/cyclic peptides of protein X1 of SARS-CoV Urbani / Binding of serum 6 to linear peptides of protein X2 / Binding of serum 37 to linear peptides of protein X2 / Binding of serum 37 to looped/cyclic peptides of protein X2 of SARS-CoV Urbani / Binding of serum 6 to linear peptides of protein M of SARS-CoV Urbani / Binding of serum 37 to linear peptides of protein M of SARS-CoV Urbani / Binding of serum 6 to looped/cyclic peptides of protein M of SARS-CoV Urbani / Binding of serum 37 to looped/cyclic peptides of protein M of SARS-CoV Urbani / Binding of serum 6 to linear peptides of protein X3 of SARS-CoV Urbani / Binding of serum 37 to linear peptides of protein X3 of SARS-CoV Urbani / Binding of serum 37 to looped/cyclic peptides of protein X3 of SARS-CoV Urbani / Binding of serum 6 to linear peptides of protein X4 of SARS-CoV Urbani / Binding of serum 37 to linear peptides of protein X4 of SARS-CoV Urbani / Binding of serum 37 to looped/cyclic peptides of protein X4 of SARS-CoV Urbani / Binding of serum 6 to linear peptides of protein X5 of SARS-CoV Urbani / Binding of serum 37 to linear peptides of protein X5 of SARS-CoV Urbani / Binding of serum 37 to looped/cyclic peptides of protein X5 of SARS-CoV Urbani / Binding of serum 6 to linear peptides of protein N of SARS-CoV Urbani / Binding of serum 37 to linear peptides of protein N of SARS-CoV Urbani / Binding of serum 6 to linear peptide (PEPSCAN-ELISA) / Binding of serum 1a to looped/cyclic peptides of protein N of SARS-CoV Urbani / Binding of serum 1b to looped/cyclic peptides of protein N of SARS-CoV Urbani / Binding of serum 2 to looped/cyclic peptides of protein N of SARS-CoV Urbani / Binding of serum 6 to looped/cyclic peptides of protein N of SARS-CoV Urbani / Binding of serum 37 to looped/cyclic peptides of protein N of SARS-CoV Urbani / Binding of serum 62 to looped/cyclic peptides of protein N of SARS-CoV Urbani / Binding of serum London to looped/cyclic peptides of protein N of SARS-CoV Urbani / Binding of serum SARS-green to looped/cyclic peptides of protein N of SARS-CoV Urbani: unit not given here
sequence,measurement,setting,value
DLPKEITVATSRTLS,Binding of Control Serum Blood-Bank to Looped peptides of the protein M of SARS-CoV Urbani,[1],0.7
same,Binding of Control serum Blood-bank to linear peptides of the protein M of SARS-CoV Urbani,[1],0.5
same,Binding of Control serum LUMC to linear peptides of the protein M of SARS-CoV Urbani,[1],0.2
same,Binding of Control serum LUMC to looped peptides of the protein M of SARS-CoV Urbani,[1],0.7
same,Rabbit serum linear peptides,[2],0.1
same,Rabbit serum looped peptides,[2],0.3
same,Binding of serum 1a to linear peptides of protein M of SARS-CoV Urbani,[3],0.7
same,Binding of serum 1a to looped/cyclic peptides of protein M of SARS-CoV Urbani,[3],0.5
same,Binding of serum 1b to linear peptides of protein M of SARS-CoV Urbani,[3],0.2
same,Binding of serum 1b to looped/cyclic peptides of protein M of SARS-CoV Urbani,[3],0.5
same,Binding of serum 2 to linear peptides of protein M of SARS-CoV Urbani,[3],0.7
same,Binding of serum 2 to looped/cyclic peptides of protein M of SARS-CoV Urbani,[3],0.6
same,Binding of serum 6 to linear peptides of protein M of SARS-CoV Urbani,[3],0.2
same,Binding of serum 6 to looped/cyclic peptides of protein M of SARS-CoV Urbani,[3],0.8
same,Binding of serum 37 to linear peptides of protein M of SARS-CoV Urbani,[3],0.5
same,Binding of serum 37 to looped/cyclic peptides of protein M of SARS-CoV Urbani,[3],0.7
same,Binding of serum 62 to linear peptides of protein M of SARS-CoV Urbani,[3],0.7
same,Binding of serum 62 to looped/cyclic peptides of protein M of SARS-CoV Urbani,[3],0.6
same,Binding of serum London to linear peptides of protein M of SARS-CoV Urbani,[3],0.3
same,Binding of serum London to looped/cyclic peptides of protein M of SARS-CoV Urbani,[3],0.4
same,Binding of serum SARS-green to linear peptides of protein M of SARS-CoV Urbani,[3],0.3
same,Binding of serum SARS-green to looped/cyclic peptides of protein M of SARS-CoV Urbani,[3],0.4
same,Binding of serum SARS-yellow to linear peptides of protein M of SARS-CoV Urbani,[3],0.0
same,Binding of serum SARS-yellow to looped/cyclic peptides of protein M of SARS-CoV Urbani,[3],0.7
DTIVVTEGDGISTPK,Binding of Control Serum Blood-Bank to Looped peptides,[1],0.4
same,Binding of Control serum Blood-bank to linear peptides,[1],0.4
same,Binding of Control serum LUMC to linear peptides,[1],0.3
same,Binding of Control serum LUMC to looped peptides,[1],0.3
same,Binding of a rabbit serum to linear peptides,[2],0.1
same,Binding of a rabbit serum to looped peptides,[2],0.5
same,Binding of serum 1a to linear peptides of protein X1 of SARS-CoV Urbani,[3],0.5
same,Binding of serum 1a to looped/cyclic peptides of protein X1 of SARS-CoV Urbani,[3],0.3
same,Binding of serum 1b to linear peptides of protein X1 of SARS-CoV Urbani,[3],0.4
same,Binding of serum 1b to looped/cyclic peptides of protein X1 of SARS-CoV Urbani,[3],0.2
same,Binding of serum 2 to linear peptides of protein X1 of SARS-CoV Urbani,[3],0.3
same,Binding of serum 2 to looped/cyclic peptides of protein X1 of SARS-CoV Urbani,[3],0.1
same,Binding of serum 6 to linear peptides of protein X1 of SARS-CoV Urbani,[3],0.4
same,Binding of serum 6 to looped/cyclic peptides of protein X1 of SARS-CoV Urbani,[3],0.2
same,Binding of serum 37 to linear peptides of protein X1 of SARS-CoV Urbani,[3],0.4
same,Binding of serum 37 to looped/cyclic peptides of protein X1 of SARS-CoV Urbani,[3],0.3
same,Binding of serum 62 to linear peptides of protein X1 of SARS-CoV Urbani,[3],0.3
same,Binding of serum 62 to looped/cyclic peptides of protein X1 of SARS-CoV Urbani,[3],0.3
same,Binding of serum London to linear peptides of protein X1 of SARS-CoV Urbani,[3],0.2
same,Binding of serum London to looped/cyclic peptides of protein X1 of SARS-CoV Urbani,[3],0.2
same,Binding of serum SARS-green to linear peptides of protein X1 of SARS-CoV Urbani,[3],0.2
same,Binding of serum SARS-green to looped/cyclic peptides of protein X1 of SARS-CoV Urbani,[3],0.1
same,Binding of serum SARS-yellow to linear peptides of protein X1 of SARS-CoV Urbani,[3],0.1
same,Binding of serum SARS-yellow to looped/cyclic peptides of protein X1 of SARS-CoV Urbani,[3],0.1
DYVVVHGYFTEVYYQ,Binding of Control Serum Blood-Bank to Looped peptides,[1],0.5
same,Binding of Control serum Blood-bank to linear peptides,[1],0.5
same,Binding of Control serum LUMC to linear peptides,[1],0.7
same,Binding of Control serum LUMC to looped peptides,[1],0.7
same,Binding of a rabbit serum to linear peptides,[2],0.1
same,Binding of a rabbit serum to looped peptides,[2],0.6
same,Binding of serum 1a to linear peptides of protein X1 of SARS-CoV Urbani,[3],0.6
same,Binding of serum 1a to looped/cyclic peptides of protein X1 of SARS-CoV Urbani,[3],0.6
same,Binding of serum 1b to linear peptides of protein X1 of SARS-CoV Urbani,[3],0.5
same,Binding of serum 1b to looped/cyclic peptides of protein X1 of SARS-CoV Urbani,[3],0.5
same,Binding of serum 2 to linear peptides of protein X1 of SARS-CoV Urbani,[3],0.4
same,Binding of serum 2 to looped/cyclic peptides of protein X1 of SARS-CoV Urbani,[3],0.5
same,Binding of serum 6 to linear peptides of protein X1 of SARS-CoV Urbani,[3],0.4
same,Binding of serum 6 to looped/cyclic peptides of protein X1 of SARS-CoV Urbani,[3],0.3
same,Binding of serum 37 to linear peptides of protein X1 of SARS-CoV Urbani,[3],0.6
same,Binding of serum 37 to looped/cyclic peptides of protein X1 of SARS-CoV Urbani,[3],0.7
same,Binding of serum 62 to linear peptides of protein X1 of SARS-CoV Urbani,[3],0.4
same,Binding of serum 62 to looped/cyclic peptides of protein X1 of SARS-CoV Urbani,[3],0.7
same,Binding of serum London to linear peptides of protein X1 of SARS-CoV Urbani,[3],0.2
same,Binding of serum London to looped/cyclic peptides of protein X1 of SARS-CoV Urbani,[3],0.2
same,Binding of serum SARS-green to linear peptides of protein X1 of SARS-CoV Urbani,[3],0.3
same,Binding of serum SARS-green to looped/cyclic peptides of protein X1 of SARS-CoV Urbani,[3],0.3
same,Binding of serum SARS-yellow to linear peptides of protein X1 of SARS-CoV Urbani,[3],0.3
same,Binding of serum SARS-yellow to looped/cyclic peptides of protein X1 of SARS-CoV Urbani,[3],0.5
EAQFLYLYALIYFLQ,Binding of Control Serum Blood-Bank to Looped peptides,[1],0.4
same,Binding of Control serum Blood-bank to linear peptides,[1],0.3
same,Binding of Control serum LUMC to linear peptides,[1],0.5
same,Binding of Control serum LUMC to looped peptides,[1],0.5
same,Binding of a rabbit serum to linear peptides,[2],0.1
same,Binding of a rabbit serum to looped peptides,[2],0.5
same,Binding of serum 1a to linear peptides of protein X1 of SARS-CoV Urbani,[3],0.7
same,Binding of serum 1a to looped/cyclic peptide (PEPSCAN-ELISA),[3],0.5
same,Binding of serum 1b to linear peptides of protein X1 of SARS-CoV Urbani,[3],0.4
same,Binding of serum 1b to looped/cyclic peptide (PEPSCAN-ELISA),[3],0.3
same,Binding of serum 2 to linear peptides of protein X1 of SARS-CoV Urbani,[3],0.6
same,Binding of serum 2 to looped/cyclic peptide (PEPSCAN-ELISA),[3],0.4
same,Binding of serum 6 to linear peptides of protein X1 of SARS-CoV Urbani,[3],0.4
same,Binding of serum 6 to looped/cyclic peptide (PEPSCAN-ELISA),[3],0.2
same,Binding of serum 37 to linear peptides of protein X1 of SARS-CoV Urbani,[3],0.5
same,Binding of serum 37 to looped/cyclic peptide (PEPSCAN-ELISA),[3],0.5
same,Binding of serum 62 to linear peptides of protein X1 of SARS-CoV Urbani,[3],0.4
same,Binding of serum 62 to looped/cyclic peptide (PEPSCAN-ELISA),[3],0.5
same,Binding of serum London to linear peptides of protein X1 of SARS-CoV Urbani,[3],0.2
same,Binding of serum London to looped/cyclic peptide (PEPSCAN-ELISA),[3],0.2
same,Binding of serum SARS-green to linear peptides of protein X1 of SARS-CoV Urbani,[3],0.1
same,Binding of serum SARS-green to looped/cyclic peptide (PEPSCAN-ELISA),[3],0.2
same,Binding of serum SARS-yellow to linear peptides of protein X1 of SARS-CoV Urbani,[3],0.2
same,Binding of serum SARS-yellow to looped/cyclic peptide (PEPSCAN-ELISA),[3],0.3
EEVQQELYSPLFLIV,Binding of Control Serum Blood-Bank to Looped peptides,[1],1.0
same,Binding of Control serum Blood-bank to linear peptides,[1],0.6
same,Binding of Control serum LUMC to linear peptides,[1],0.6
same,Binding of Control serum LUMC to looped peptides,[1],1.0
same,Rabbit serum linear peptides,[2],0.4
same,Rabbit serum looped peptides,[2],0.5
same,Binding of serum 1a to linear peptides of protein X4 of SARS-CoV Urbani,[3],0.7
same,Binding of serum 1b to linear peptides of protein X4 of SARS-CoV Urbani,[3],0.6
same,Binding of serum 2 to linear peptides of protein X4 of SARS-CoV Urbani,[3],0.6
same,Binding of serum 6 to linear peptides of protein X4 of SARS-CoV Urbani,[3],0.6
same,Binding of serum 37 to linear peptides of protein X4 of SARS-CoV Urbani,[3],0.7
same,Binding of serum 62 to linear peptides of protein X4 of SARS-CoV Urbani,[3],0.8
same,Binding of serum London to linear peptides of protein X4 of SARS-CoV Urbani,[3],0.7
same,Binding of serum SARS-green to linear peptides of protein X4 of SARS-CoV Urbani,[3],0.7
same,Binding of serum SARS-yellow to linear peptides of protein X4 of SARS-CoV Urbani,[3],0.8
same,"Recognition of the peptide by sera of SARS-CoV infected individuals, and form (linear, looped/cyclic) in which it is recognized",[3],recognized in looped/cyclic form
